Results: US20260125359A1, “HETEROARYL COMPOUNDS AS MULTI-TARGET PROTEIN KINASE INHIBITORS” (FUJIAN HAIXI PHARMACEUTICALS CO., LTD., priority 2023, published 2026)

System: M-NFS-60 cells
Assay: M-NFS-60 cell in vitro assay (CCK, 48 h, M-CSF factor medium)
Format: cell-based
Settings: M-NFS-60 cells; read-out: M-NFS-60cellassay IC50
How it was run: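 Mouse M-NFS-60 cells (2000/well) in RPMI-1640 with 10% serum and M-CSF (25 ng/ml) were pre-incubated 4 h, then exposed to DMSO-diluted compound gradients for 48 h at 5% CO2. Viability read by CCK, 2 h, OD 450 nm; IC50 from curve fitting.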

Row | Compound | IC50 [nM]
1 | Cn1cc(-c2cncc(N[C@H]3CCc4c(C(=O)NC5CCCCC5)cccc43)n2)cn1 [Compound 27c] | < 50
2 | CN1CCc2c(cccc2NC(=O)c2cccc3c2CC[C@@H]3Oc2cncc(-c3cnn(C)c3)c2)C1 [Compound 19g] | > 500
3 | COc1cccc(NC(=O)c2cccc3c2CC[C@@H]3Oc2cnc3cnn(C)c3c2)c1F [Compound 76ak] | 50 to 200
4 | CN1CCN(Cc2cccc(NC(=O)c3cccc4c3CC[C@@H]4Nc3cncc(-c4cnn(C)c4)c3)c2)CC1 [Compound 14ar] | 200 to 500
5 | CC(C)c1cnc(Nc2cccc3c2CC[C@@H]3Nc2cncc(-c3cnn(C)c3)n2)s1 [Compound 37, (S)—N^4-(5-isopropylthiazol-2-yl)-N^1-(6-(1-methyl-1H-pyrazol-4-yl)pyrazin-2-yl)-2,3-dihydro-1H-indene-1,4-diamine] | 50 to 200
6 | Cn1cc(-c2cncc(N[C@H]3CCc4c(NC(=O)c5cccc(C(F)(F)F)c5F)cccc43)n2)cn1 [Compound 25c] | < 50
7 | Cn1cc(-c2cncc(N[C@H]3CCc4c(CNC5CCCCC5)cccc43)n2)cn1 [Compound 59f] | > 500
8 | Cn1ncc2ncc(O[C@H]3CCc4c(NC(=O)c5cccc(C6CC6)c5)ccc(F)c43)cc21 [Compound 78a] | < 50
9 | Cc1cccc(NC(=O)c2cccc3c2CC[C@@H]3Nc2cncc(Cl)n2)c1 [Compound 33c, (S)-1-((6-chloropyrazin-2-yl)amino)-N-(m-tolyl)-2,3-dihydro-1H-indene-4-carboxamide] | < 50
10 | COc1cc(NC(=O)c2cccc3c2CC[C@@H]3N(C)c2cnc3cn(C)nc3c2)ccc1F [Compound 80v] | < 50
11 | Cn1cc(-c2cncc(N[C@H]3CCc4c(CNc5ccccc5F)cccc43)n2)cn1 [Compound 59e] | > 500
12 | CN1CCN(Cc2ccc(NC(=O)c3cccc4c3CC[C@@H]4Nc3cncc(-c4cnn(C)c4)c3)cc2)CC1 [Compound 14aj] | 50 to 200
13 | Cn1cc(-c2cncc(N[C@H]3CCc4c(C(=O)NC5CCOCC5)cccc43)n2)cn1 [Compound 27l] | > 500
14 | CN(C)Cc1ccc(NC(=O)c2cccc3c2CC[C@@H]3Oc2cc(-c3cnn(C)c3)cnc2N)cc1 [Compound 5d] | < 50
15 | Cc1cc(C(=O)Nc2cccc3c2CC[C@@H]3Nc2cc(-c3cnn(C)c3)cnc2N)ccc1F [Compound 6, (S)—N-(1-((2-amino-5-(1-methyl-1H-pyrazol-4-yl)pyridin-3-yl)amino)-2,3-dihydro-1H-inden-4-yl)-4-fluoro-3-methylbenzamide] | 50 to 200
16 | CNCc1cccc(NC(=O)c2cccc3c2CC[C@@H]3Oc2cncc(-c3cnn(C)c3)c2)c1 [Compound 19l] | > 500
17 | Cn1cc(-c2cncc(N[C@H]3CCc4c(C(=O)NN5CC6CCCC6C5)cccc43)n2)cn1 (stereo partly drawn) [Compound 27i] | < 50
18 | Cc1ccc(F)c(NC(=O)c2cccc3c2CC[C@@H]3Nc2cncc(-c3cnn(C)c3)c2)c1 [Compound 14ac] | < 50
19 | CN(c1cncc(-c2cnn(C)c2)c1)[C@H]1CCc2c(C(=O)Nc3cccc(C4CC4)c3)cc(F)cc21 [Compound 52, (S)—N-(3-cyclopropylphenyl)-6-fluoro-1-(methyl (5-(1-methyl-1H-pyrazol-4-yl)pyridin-3-yl)amino)-2,3-dihydro-1H-indene-4-carboxamide] | < 50
20 | Cn1cc(-c2cncc(O[C@H]3CCc4c(C(=O)Nc5cccc(CN6CCC6)c5)cccc43)c2)cn1 [Compound 19s] | 200 to 500
21 | Cc1cccc(C(=O)Nc2c(F)ccc3c2CC[C@@H]3Nc2cncc(-c3cnn(C)c3)c2)c1 (stereo in doubt) [Compound 43, N-(5-fluoro-1-((5-(1-methyl-1H-pyrazol-4-yl)pyridin-3-yl)amino)-2,3-dihydro-1H-inden-4-yl)-3-methylbenzamide] | 200 to 500
22 | Cn1cc(-c2cncc(N[C@H]3CCc4c(Nc5ccn(C(C)(C)C)n5)cccc43)n2)cn1 [Compound 38, (S)—N^4-(1-(tert-butyl)-1H-pyrazol-3-yl)-N^1-(6-(1-methyl-1H-pyrazol-4-yl)pyrazin-2-yl)-2,3-dihydro-1H-indene-1,4-diamine] | 50 to 200
23 | Cn1cc(-c2cncc(N[C@H]3CCc4c(C(=O)Nc5cncc(C(F)(F)F)c5)cccc43)c2)cn1 [Compound 14ak] | < 50

Row | Compound | IC50 [nM]
24 | Nc1ncc(Cl)cc1O[C@H]1CCc2c(C(=O)Nc3cccc(C4CC4)c3)cccc21 [Compound 7, (S)-1-((2-amino-5-chloropyridin-3-yl)oxy)-N-(3-cyclopropylphenyl)-2,3-dihydro-1H-indene-4-carboxamide] | < 50
25 | Cc1cc2ncc(N[C@H]3CCc4c(C(=O)Nc5cccc(C6CC6)c5)cccc43)cn2n1 [Compound 74f] | < 50
26 | Cn1cc(-c2cncc(N[C@H]3CCc4c(NC(=O)Nc5ccccc5F)cccc43)n2)cn1 [Compound 65e] | < 50
27 | Cn1cc(-c2cncc(N[C@H]3CCc4c(NC(=O)c5cccc(C(F)(F)F)c5)ccc(F)c43)c2)cn1 [Compound 46d] | < 50
28 | CN(C)Cc1cccc(NC(=O)c2cccc3c2CC[C@@H]3Nc2cncc(-c3cnn(C)c3)c2)c1 [Compound 14az] | 50 to 200
29 | Cn1cc2ncc(N[C@H]3CCc4c(Nc5noc(C(F)(F)F)n5)cccc43)cc2n1 [Compound 93p] | > 500
30 | Cn1cc2ncc(N[C@H]3CCc4c(Nc5cc(C(C)(C)C(F)(F)F)on5)cccc43)cc2n1 [Compound 91j] | < 50
31 | Cn1cc(-c2cnc(N)c(O[C@H]3CCc4c(C(=O)Nc5cccc(CN6CCCC6)c5)cccc43)c2)cn1 [Compound 5c] | 50 to 200
32 | Cn1cc(-c2cncc(N[C@H]3CCc4c(C(=O)Nc5cccc(C6CC6)c5)cccc43)c2)cn1 [Compound 14aw] | < 50
33 | Cn1cc(-c2cncc(N[C@H]3CCc4c(Nc5nc(C(C)(C)C)cs5)ccc(F)c43)c2)cn1 [Compound 42t] | 50 to 200
34 | Cn1ncc2ncc(O[C@H]3CCc4c(C(=O)Nc5ccc6c(c5)OC(F)(F)O6)cccc43)cc21 [Compound 76ae] | < 50
35 | Cc1cccc(C(=O)Nc2cc(F)cc3c2CCC3Nc2cncc(-c3cnn(C)c3)c2)c1 (stereo not drawn) [Compound 44a] | 50 to 200
36 | CN(c1cnc2cnn(C)c2c1)[C@H]1CCc2c(C(=O)Nc3nn(C)c4ccccc34)cccc21 [Compound 80h] | < 50
37 | Cc1ccc(F)c(NC(=O)c2cccc3c2CC[C@@H]3N(C)c2cnc3cn(C)nc3c2)c1 [Compound 80n] | < 50
38 | COc1cc(NC(=O)c2cccc3c2CC[C@@H]3Nc2cncc(-c3cnn(C)c3)c2)ccc1F [Compound 14af] | < 50
39 | COc1cccc(NC(=O)c2cccc3c2CC[C@@H]3Oc2cnc3cn(C)nc3c2)c1F [Compound 76az] | < 50
40 | Cn1cc2ncc(O[C@H]3CCc4c(C(=O)Nc5cccc(C6CC6)c5F)cccc43)cc2n1 [Compound 76bb] | < 50
41 | Cc1ccc(F)c(NC(=O)c2cccc3c2CC[C@@H]3N(C)c2cnc3cnn(C)c3c2)c1 [Compound 80y] | < 50
42 | COc1cc(NC(=O)c2cccc3c2CC[C@@H]3Nc2cncc(-c3cnn(C)c3)n2)ccc1F [Compound 27o] | < 50
43 | Cn1ncc2ncc(O[C@H]3CCc4c(C(=O)Nc5cncc(C6CC6)c5)cccc43)cc21 [Compound 76at] | < 50
44 | Cc1cccc(NC(=O)c2cccc3c2CC[C@@H]3N(C)c2cnc3cn(C)nc3c2)c1F [Compound 80j] | < 50
45 | COc1cc(NC(=O)c2cccc3c2CC[C@@H]3N(C)c2cnc3cnn(C)c3c2)ccc1F [Compound 80d] | < 50
